This assay deals with MV-4-11 cells. Description: Gene expression microarray analysis (Affymetrix PrimeView) and GSEA. The format is cell-based, human. The settings on record: ProbeSet 11728879_at; LIST B. Details: RFU PODN (11730768_x_at) / Fold change /veh PODN (11730768_x_at) / RFU LINC00158 (11744669_a_at) / Fold change /veh LINC00158 (11744669_a_at) / RFU DUSP10 (11751237_a_at) / Fold change /veh DUSP10 (11751237_a_at) / RFU ID3 (11757404_x_at) / Fold change /veh ID3 (11757404_x_at) / RFU PLEKHG5 (11737974_s_at) / Fold change /veh PLEKHG5 (11737974_s_at) / RFU LRRC4B (11730491_at) / Fold change /veh LRRC4B (11730491_at) / RFU GIMAP4 (11747438_a_at) / Fold change /veh GIMAP4 (11747438_a_at) / RFU KRT8 (11758183_x_at) / Fold change /veh KRT8 (11758183_x_at) / RFU CNN1 (11734310_a_at) / Fold change /veh CNN1 (11734310_a_at) / RFU VPS37D (11726825_at) / Fold change /veh VPS37D (11726825_at) / RFU C10orf10 (11716522_x_at) / Fold change /veh C10orf10 (11716522_x_at) / RFU KIR2DL2 /// KIR2DL4 /// KIR2DL5A /// KIR2DL5B /// KIR2DS1 /// KIR2DS2 /// KIR2DS3 /// KIR2DS4 /// KIR3DL3 /// KIR3DL3 /// KIR3DS1 (11738374_at) / Fold change /veh KIR2DL2 /// KIR2DL4 /// KIR2DL5A /// KIR2DL5B /// KIR2DS1 /// KIR2DS2 /// KIR2DS3 /// KIR2DS4 /// KIR3DL3 /// KIR3DL3 /// KIR3DS1 (11738374_at) / RFU C1QL1 (11718748_at) / Fold change /veh C1QL1 (11718748_at) / RFU TMPRSS4 (11747572_a_at) / Fold change /veh TMPRSS4 (11747572_a_at) / RFU HAMP (11756126_x_at) / Fold change /veh HAMP (11756126_x_at) / RFU RNFT2 (11725882_a_at) / Fold change /veh RNFT2 (11725882_a_at) / RFU NR4A2 (11747474_a_at) / Fold change /veh NR4A2 (11747474_a_at) / RFU ABCC12 (11746883_a_at) / Fold change /veh ABCC12 (11746883_a_at) / RFU TMEM136 (11760407_x_at) / Fold change /veh TMEM136 (11760407_x_at) / RFU CLDN22 /// WWC2 (11732394_at) / Fold change /veh CLDN22 /// WWC2 (11732394_at) / RFU HLA-DPB1 (11760878_x_at) / Fold change /veh HLA-DPB1 (11760878_x_at) / RFU SPINT1 (11716480_a_at) / Fold change /veh SPINT1 (11716480_a_at) / RFU GAP43 (11754022_s_at) / Fold change /veh GAP43 (11754022_s_at) / RFU A4GNT (11735810_at) / Fold change /veh A4GNT (11735810_at) / RFU PRB3 (11715151_x_at) / Fold change /veh PRB3 (11715151_x_at) / RFU TUBB4B (11761932_at) / Fold change /veh TUBB4B (11761932_at) / RFU CAPN14 (11732068_a_at) / Fold change /veh CAPN14 (11732068_a_at) / RFU TMCC2 (11721928_a_at) / Fold change /veh TMCC2 (11721928_a_at) / RFU IRGQ (11745062_a_at) / Fold change /veh IRGQ (11745062_a_at) / RFU FAM174B (11720279_a_at) / Fold change /veh FAM174B (11720279_a_at) / RFU TMPRSS4 (11748680_a_at) / Fold change /veh TMPRSS4 (11748680_a_at) / RFU FAM212B (11763350_a_at) / Fold change /veh FAM212B (11763350_a_at) / RFU PLEKHG5 (11743358_a_at) / Fold change /veh PLEKHG5 (11743358_a_at) / RFU ZSCAN30 (11745921_a_at) / Fold change /veh ZSCAN30 (11745921_a_at) / RFU CMKLR1 (11741424_a_at) / Fold change /veh CMKLR1 (11741424_a_at) / RFU LOC101060620 /// MAPK8IP1 (11723275_at) / Fold change /veh LOC101060620 /// MAPK8IP1 (11723275_at) / RFU SPTSSB (11747773_x_at) / Fold change /veh SPTSSB (11747773_x_at) / RFU PRSS12 (11739890_at) / Fold change /veh PRSS12 (11739890_at) / RFU BIN1 (11741810_x_at) / Fold change /veh BIN1 (11741810_x_at) / RFU WNT11 (11732464_a_at) / Fold change /veh WNT11 (11732464_a_at) / RFU C10orf10 (11716521_a_at) / Fold change /veh C10orf10 (11716521_a_at) / RFU C5orf56 (11738089_at) / Fold change /veh C5orf56 (11738089_at) / RFU CYB561 (11721691_x_at) / Fold change /veh CYB561 (11721691_x_at) / RFU ANKRD19P (11752326_a_at) / Fold change /veh ANKRD19P (11752326_a_at) / RFU OR2T12 /// OR2T33 /// OR2T8 (11738714_s_at) / Fold change /veh OR2T12 /// OR2T33 /// OR2T8 (11738714_s_at) / RFU VCAN (11748164_a_at) / Fold change /veh VCAN (11748164_a_at) / RFU JSRP1 (11732532_at) / Fold change /veh JSRP1 (11732532_at) / RFU KRTAP10-11 (11738290_x_at) / Fold change /veh KRTAP10-11 (11738290_x_at) / RFU MYO3A (11730013_a_at) / Fold change /veh MYO3A (11730013_a_at) / RFU EBF3 (11725865_a_at) / Fold change /veh EBF3 (11725865_a_at) / RFU CAMK2N1 (11719241_x_at) / Fold change /veh CAMK2N1 (11719241_x_at) / RFU C5orf56 (11738088_a_at) / Fold change /veh C5orf56 (11738088_a_at) / RFU OLFML3 (11715873_a_at) / Fold change /veh OLFML3 (11715873_a_at) / RFU LOC100653217 /// NTM (11731650_a_at) / Fold change /veh LOC100653217 /// NTM (11731650_a_at) / RFU MAPK11 (11762145_a_at) / Fold change /veh MAPK11 (11762145_a_at) / RFU FIZ1 (11724087_x_at) / Fold change /veh FIZ1 (11724087_x_at) / RFU OASL (11726364_x_at) / Fold change /veh OASL (11726364_x_at) / RFU SOX15 (11748057_x_at) / Fold change /veh SOX15 (11748057_x_at) / RFU CD79A (11719716_a_at) / Fold change /veh CD79A (11719716_a_at) / RFU HIST1H1D (11736915_at) / Fold change /veh HIST1H1D (11736915_at) / RFU CASKIN2 (11723855_a_at) / Fold change /veh CASKIN2 (11723855_a_at) / RFU LOC730098 (11760151_x_at) / Fold change /veh LOC730098 (11760151_x_at) / RFU OR4N2 (11742367_at) / Fold change /veh OR4N2 (11742367_at) / RFU PRRT2 (11749266_a_at) / Fold change /veh PRRT2 (11749266_a_at) / RFU SNX32 (11753110_a_at) / Fold change /veh SNX32 (11753110_a_at) / RFU CDHR5 (11726645_a_at) / Fold change /veh CDHR5 (11726645_a_at) / RFU RCAN1 (11760418_a_at) / Fold change /veh RCAN1 (11760418_a_at) / RFU FAM167A (11723789_a_at) / Fold change /veh FAM167A (11723789_a_at) / RFU FAM26E (11764081_at) / Fold change /veh FAM26E (11764081_at) / RFU ISYNA1 (11749810_s_at) / Fold change /veh ISYNA1 (11749810_s_at) / RFU ACY1 (11761880_at) / Fold change /veh ACY1 (11761880_at) / RFU 11764098_at / Fold change /veh 11764098_at / RFU SAMD14 (11745864_x_at) / Fold change /veh SAMD14 (11745864_x_at) / RFU NPB (11741838_a_at) / Fold change /veh NPB (11741838_a_at) / RFU TMPRSS6 (11731388_a_at) / Fold change /veh TMPRSS6 (11731388_a_at) / RFU KRTAP10-2 (11738614_at) / Fold change /veh KRTAP10-2 (11738614_at) / RFU ARHGAP8 /// PRR5-ARHGAP8 (11727945_x_at) / Fold change /veh ARHGAP8 /// PRR5-ARHGAP8 (11727945_x_at) / RFU KRTAP5-7 /// NADSYN1 (11734609_at) / Fold change /veh KRTAP5-7 /// NADSYN1 (11734609_at) / RFU RASL12 (11751679_a_at) / Fold change /veh RASL12 (11751679_a_at) / RFU CDKN2B (11736163_a_at) / Fold change /veh CDKN2B (11736163_a_at) / RFU PRF1 (11729649_at) / Fold change /veh PRF1 (11729649_at) / RFU, ZNF638 /// ZNF638-IT1 / Fold change vs veh, ZNF638 /// ZNF638-IT1 / RFU, PANK3 / Fold change vs veh, PANK3 / RFU, SH3YL1 / Fold change vs veh, SH3YL1 / RFU, ZEB2 / Fold change vs veh, ZEB2 / RFU, NRIP1 / Fold change vs veh, NRIP1 / RFU, PTTG1IP / Fold change vs veh, PTTG1IP / RFU, CAPN2 / Fold change vs veh, CAPN2 / RFU, MED14 / Fold change vs veh, MED14 / RFU, SNORA58 / Fold change vs veh, SNORA58 / RFU, C1orf63 / Fold change vs veh, C1orf63 / RFU, LRRFIP1 / Fold change vs veh, LRRFIP1 / RFU, NDUFAF7 / Fold change vs veh, NDUFAF7 / RFU, SLC12A2 / Fold change vs veh, SLC12A2 / RFU, IBTK / Fold change vs veh, IBTK / RFU, ESF1 / Fold change vs veh, ESF1 / Fold change vs veh, TMEM50B / RFU, TAOK1 / Fold change vs veh, TAOK1 / RFU, ACBD3 / Fold change vs veh, ACBD3 / RFU, TMA16 / Fold change vs veh, TMA16 / RFU, RWDD3 / Fold change vs veh, RWDD3 / RFU, BCAT1 / Fold change vs veh, BCAT1 / RFU, EDEM3 / Fold change vs veh, EDEM3 / RFU, TMEM33 / Fold change vs veh, TMEM33 / RFU, WDR75 / Fold change vs veh, WDR75 / RFU, AHCTF1 / Fold change vs veh, AHCTF1 / RFU, TFRC / Fold change vs veh, TFRC / RFU, ZDHHC17 / Fold change vs veh, ZDHHC17 / RFU, NOM1 / Fold change vs veh, NOM1 / RFU, ARL8B / Fold change vs veh, ARL8B / RFU, ZBTB11 / Fold change vs veh, ZBTB11 / RFU, TAMM41 / Fold change vs veh, TAMM41 / RFU, KIAA1704 /// LOC100996395 / Fold change vs veh, KIAA1704 /// LOC100996395 / RFU, ING1 / Fold change vs veh, ING1 / RFU, TRMT61B / Fold change vs veh, TRMT61B / RFU, FUBP3 / Fold change vs veh, FUBP3 / RFU, TP53 / Fold change vs veh, TP53 / RFU, TNKS2 / Fold change vs veh, TNKS2 / RFU, ZFP14 / Fold change vs veh, ZFP14 / RFU, ACTR2 / Fold change vs veh, ACTR2 / RFU, PPP3R1 / Fold change vs veh, PPP3R1 / RFU, PIK3R1 / Fold change vs veh, PIK3R1 / RFU, HNRNPA1 / Fold change vs veh, HNRNPA1 / RFU, RNF170 / Fold change vs veh, RNF170 / RFU, ZNF28 / Fold change vs veh, ZNF28 / RFU, RNGTT / Fold change vs veh, RNGTT / RFU, OGT / Fold change vs veh, OGT / RFU, BRD1 / Fold change vs veh, BRD1 / RFU, MARS / Fold change vs veh, MARS / RFU, ZNF655 / Fold change vs veh, ZNF655 / RFU, FAHD1 / Fold change vs veh, FAHD1 / RFU, BDP1 / Fold change vs veh, BDP1 / RFU, LRRCC1 / Fold change vs veh, LRRCC1 / RFU, ARID1A / Fold change vs veh, ARID1A / RFU, ZNF146 / Fold change vs veh, ZNF146 / RFU, ZNF330 / Fold change vs veh, ZNF330 / RFU, GPN3 / Fold change vs veh, GPN3 / RFU, C9orf123 / Fold change vs veh, C9orf123 / RFU, N4BP2L2 / Fold change vs veh, N4BP2L2 / RFU, ARFIP1 / Fold change vs veh, ARFIP1 / RFU, FAM179B / Fold change vs veh, FAM179B / RFU, BCL10 / Fold change vs veh, BCL10 / RFU, UHRF1BP1L / Fold change vs veh, UHRF1BP1L / RFU, BET1 / Fold change vs veh, BET1 / RFU, CNOT2 / Fold change vs veh, CNOT2 / RFU, ZNF268 / Fold change vs veh, ZNF268 / Fold change vs veh, ZNF507 / RFU, DGCR2 / Fold change vs veh, DGCR2 / RFU, WDSUB1 / Fold change vs veh, WDSUB1 / Fold change vs veh, HSP90B1 /// MIR3652 / RFU, ADSS / Fold change vs veh, ADSS / RFU, GK / Fold change vs veh, GK / RFU, ZNF148 / Fold change vs veh, ZNF148 / RFU, TAF9 / Fold change vs veh, TAF9 / RFU, SLC1A5 / Fold change vs veh, SLC1A5 / RFU, SLMO2 / Fold change vs veh, SLMO2 / RFU, ABCC4 / Fold change vs veh, ABCC4 / RFU, LOC101060439 /// RAP1B / Fold change vs veh, LOC101060439 /// RAP1B / RFU, RFX7 / Fold change vs veh, RFX7 / RFU, GTPBP10 / Fold change vs veh, GTPBP10 / RFU, CNEP1R1 / Fold change vs veh, CNEP1R1 / RFU, BIVM-ERCC5 /// ERCC5 / Fold change vs veh, BIVM-ERCC5 /// ERCC5 / RFU, ILF3 / Fold change vs veh, ILF3 / RFU 11762660_at / Fold change /veh 11762660_at / RFU VCAN (11757783_s_at) / Fold change /veh VCAN (11757783_s_at) / RFU DDX43 (11728927_at) / Fold change /veh DDX43 (11728927_at) / RFU KRT8 (11758188_x_at) / Fold change /veh KRT8 (11758188_x_at) / RFU NKD1 (11759106_at) / Fold change /veh NKD1 (11759106_at) / RFU SRD5A1 (11742802_a_at) / Fold change /veh SRD5A1 (11742802_a_at) / RFU TPSAB1 /// TPSB2 (11721975_s_at) / Fold change /veh TPSAB1 /// TPSB2 (11721975_s_at) / RFU GSTM3 (11746129_a_at) / Fold change /veh GSTM3 (11746129_a_at) / RFU IL23R (11737362_x_at) / Fold change /veh IL23R (11737362_x_at) / RFU TMEM51 (11727254_a_at) / Fold change /veh TMEM51 (11727254_a_at) / RFU PIWIL2 (11732686_x_at) / Fold change /veh PIWIL2 (11732686_x_at) / RFU ORM1 (11744905_x_at) / Fold change /veh ORM1 (11744905_x_at) / RFU CCDC152 (11743942_at) / Fold change /veh CCDC152 (11743942_at) / RFU ECM1 (11717891_a_at) / Fold change /veh ECM1 (11717891_a_at) / RFU IL23R (11748794_a_at) / Fold change /veh IL23R (11748794_a_at) / RFU TNFAIP8L3 (11732012_x_at) / Fold change /veh TNFAIP8L3 (11732012_x_at) / RFU MBOAT4 (11741988_at) / Fold change /veh MBOAT4 (11741988_at) / RFU 11764193_at / Fold change /veh 11764193_at / RFU TMEM53 (11763286_at) / Fold change /veh TMEM53 (11763286_at) / RFU MAGEB2 (11727129_at) / Fold change /veh MAGEB2 (11727129_at) / RFU TMEM200A (11744735_a_at) / Fold change /veh TMEM200A (11744735_a_at) / RFU CCDC152 (11751479_a_at) / Fold change /veh CCDC152 (11751479_a_at) / RFU FAM211A (11726209_a_at) / Fold change /veh FAM211A (11726209_a_at) / RFU RGS16 (11746705_a_at) / Fold change /veh RGS16 (11746705_a_at) / RFU VCAN (11755009_s_at) / Fold change /veh VCAN (11755009_s_at) / RFU RHOB (11743442_s_at) / Fold change /veh RHOB (11743442_s_at) / RFU RGS16 (11720943_a_at) / Fold change /veh RGS16 (11720943_a_at) / RFU RGS16 (11720944_at) / Fold change /veh RGS16 (11720944_at) / RFU, VPS4B / Fold change vs veh, VPS4B / RFU, CREB1 / Fold change vs veh, CREB1 / RFU, DNAJC13 / Fold change vs veh, DNAJC13 / RFU, GNAQ / Fold change vs veh, GNAQ / RFU, CDK5R1 / Fold change vs veh, CDK5R1 / RFU, ZRANB3 / Fold change vs veh, ZRANB3 / RFU, CUL4A / Fold change vs veh, CUL4A / RFU, CCNY / Fold change vs veh, CCNY / RFU, UFL1 / Fold change vs veh, UFL1 / RFU, COG3 / Fold change vs veh, COG3 / RFU, DIAPH2 / Fold change vs veh, DIAPH2 / RFU, SKA2 / Fold change vs veh, SKA2 / RFU, AFF3 / Fold change vs veh, AFF3 / RFU, LMF1 / Fold change vs veh, LMF1 / RFU, IPO11 / Fold change vs veh, IPO11 / RFU, DFFB / Fold change vs veh, DFFB / RFU, FOXP1 / Fold change vs veh, FOXP1 / RFU, CARD8 / Fold change vs veh, CARD8 / RFU, STRN3 / Fold change vs veh, STRN3 / RFU, ADK / Fold change vs veh, ADK / RFU, RASSF2 / Fold change vs veh, RASSF2 / RFU, WIPF1 / Fold change vs veh, WIPF1 / RFU, LARP1B / Fold change vs veh, LARP1B / RFU, RASA1 / Fold change vs veh, RASA1 / RFU, RB1 / Fold change vs veh, RB1 / RFU, PPFIA1 / Fold change vs veh, PPFIA1 / RFU, MAT2A / Fold change vs veh, MAT2A / RFU, CCT5 / Fold change vs veh, CCT5 / RFU, WDR92 / Fold change vs veh, WDR92 / RFU, CUX1 / Fold change vs veh, CUX1 / RFU, TTC7A / Fold change vs veh, TTC7A / RFU, TMEM135 / Fold change vs veh, TMEM135 / RFU, DEPTOR / Fold change vs veh, DEPTOR / RFU, CPM / Fold change vs veh, CPM / RFU, DNAJB6 / Fold change vs veh, DNAJB6 / RFU, CACNA2D3 / Fold change vs veh, CACNA2D3 / RFU, DTX4 / Fold change vs veh, DTX4 / RFU, TFCP2 / Fold change vs veh, TFCP2 / RFU, GMCL1 /// GMCL1P1 / Fold change vs veh, GMCL1 /// GMCL1P1 / RFU, AEBP2 / Fold change vs veh, AEBP2 / RFU, SNHG1 /// SNORD22 /// SNORD25 /// SNORD26 /// SNORD27 /// SNORD28 /// SNORD29 /// SNORD31 / Fold change vs veh, SNHG1 /// SNORD22 /// SNORD25 /// SNORD26 /// SNORD27 /// SNORD28 /// SNORD29 /// SNORD31 / Fold change (Aza/veh), C12orf56 (ProbeSet 11735607_a_at) / Fold change (ACY-1035/veh), C12orf56 (ProbeSet 11735607_a_at) / Fold change (Aza/veh), FGFR1OP (ProbeSet 11751329_s_at) / Fold change (ACY-1035/veh), FGFR1OP (ProbeSet 11751329_s_at) / Fold change (Aza/veh), VPS36 (ProbeSet 11739960_a_at) / Fold change (ACY-1035/veh), VPS36 (ProbeSet 11739960_a_at) / RFU SYPL1 (11715823_x_at) / Fold change /veh SYPL1 (11715823_x_at) / RFU IGFBP7 (11715501_s_at) / Fold change /veh IGFBP7 (11715501_s_at) / RFU REEP3 (11722064_at) / Fold change /veh REEP3 (11722064_at) / RFU IGLL1 (11728026_x_at) / Fold change /veh IGLL1 (11728026_x_at): dose or concentration left out as unconfirmed.

With `Nc1ncn([C@@H]2O[C@H](CO)[C@@H](O)[C@H]2O)c(=O)n1` [azacitidine], the “Fold change vs veh, PPP3R1” value was 0.88.

The record behind these values is publication PMC5218480 (PLoS ONE, 2017).
